Reference: PubChem BioAssay AID330 (DTP/NCI, 2004)
Where “and” joins values, the source holds several entries; their conditions need not be identical. Equal values may be shown once. Inconclusive results and toxic doses are left out.

System: P388 leukemia ip, CD2F1 mice, survival T/C
Test: NCI In Vivo Anticancer Drug Screen. Data for tumor model P388 Leukemia (intraperitoneal) in CD2F1 (CDF1) mice
Conditions: endpoint: median survival time, higher = longer survival
How it was run: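 Mice carrying the transplanted tumor received test compound or vehicle. Survival was recorded in each group, and the value is the treated-group measurement divided by that of the vehicle-treated control group.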

[1] = dose: 100.0 mg/kg/injection, schedule: Q01DX009 (ip), vehicle: saline with Tween-80
[2] = dose: 200.0 mg/kg/injection, schedule: Q01DX009 (ip), vehicle: saline with Tween-80
[3] = dose: 50.0 mg/kg/injection, schedule: Q01DX009 (ip), vehicle: saline with Tween-80
[4] = dose: 25.0 mg/kg/injection, schedule: Q01DX005 (ip), vehicle: Klucel (hydroxypropylcellulose) (HPC)
[5] = dose: 50.0 mg/kg/injection, schedule: Q01DX005 (ip), vehicle: Klucel (hydroxypropylcellulose) (HPC)
[6] = dose: 100.0 mg/kg/injection, schedule: Q04DX003 (ip), vehicle: Klucel (hydroxypropylcellulose) (HPC)
[7] = dose: 200.0 mg/kg/injection, schedule: Q04DX003 (ip), vehicle: Klucel (hydroxypropylcellulose) (HPC)
[8] = dose: 100.0 mg/kg/injection, schedule: Q01DX005 (ip), vehicle: Klucel (hydroxypropylcellulose) (HPC)
[9] = dose: 200.0 mg/kg/injection, schedule: Q01DX005 (ip), vehicle: Klucel (hydroxypropylcellulose) (HPC)
[10] = dose: 60.0 mg/kg/injection, schedule: Q01DX005 (ip), vehicle: Klucel (hydroxypropylcellulose) (HPC)
[11] = dose: 120.0 mg/kg/injection, schedule: Q01DX005 (ip), vehicle: Klucel (hydroxypropylcellulose) (HPC)
[12] = dose: 240.0 mg/kg/injection, schedule: Q01DX005 (ip), vehicle: Klucel (hydroxypropylcellulose) (HPC)
[13] = dose: 50.0 mg/kg/injection, schedule: Q01DX005 (ip), vehicle: saline with Tween-80
[14] = dose: 60.0 mg/kg/injection, schedule: Q01DX005 (ip), vehicle: saline
[15] = dose: 120.0 mg/kg/injection, schedule: Q01DX005 (ip), vehicle: saline
[16] = dose: 240.0 mg/kg/injection, schedule: Q01DX005 (ip), vehicle: saline
[17] = dose: 100.0 mg/kg/injection, schedule: Q01DX005 (ip), vehicle: saline with Tween-80

SMILES: OCC1OC(n2cnc3c(=S)nc[nH]c32)C(O)C1O (centres undefined)
- T/C (dose: 25.0 mg/kg/injection, schedule: Q01DX009 (ip), vehicle: saline sonified): 95 % of control
- T/C (dose: 50.0 mg/kg/injection, schedule: Q01DX009 (ip), vehicle: saline sonified): 100 % of control
- T/C (dose: 100.0 mg/kg/injection, schedule: Q01DX009 (ip), vehicle: saline sonified): 100 % of control
- T/C [1]: 100 % of control
- T/C [2]: 100 % of control
- T/C (dose: 400.0 mg/kg/injection, schedule: Q01DX009 (ip), vehicle: saline with Tween-80): 95 % of control
- T/C (dose: 800.0 mg/kg/injection, schedule: Q01DX009 (ip), vehicle: saline with Tween-80): 109 % of control

SMILES: CC(=O)C1C(=O)OC(C)=C(C(=O)O)C1=O (centres undefined)
- T/C (dose: 50.0 mg/kg/injection, schedule: Q04DX003 (ip), vehicle: saline with Tween-80): 109 % of control
- T/C (dose: 100.0 mg/kg/injection, schedule: Q04DX003 (ip), vehicle: saline with Tween-80): 109 % of control
- T/C (dose: 200.0 mg/kg/injection, schedule: Q04DX003 (ip), vehicle: saline with Tween-80): 100 % of control

SMILES: COc1c(CCl)c2c(c(OC)c1OC)COC2=O
- T/C [3]: 100 % of control
- T/C [1]: 90 % of control
- T/C [2]: 116 % of control

SMILES: Cc1cn(CCCOc2c3occc3cc3ccc(=O)oc23)c(=O)[nH]c1=O
- T/C (dose: 12.5 mg/kg/injection, schedule: Q01DX005 (ip), vehicle: Klucel (hydroxypropylcellulose) (HPC)): 86 % of control
- T/C [4]: 96 % of control
- T/C [5]: 88 % of control

SMILES: O=[N+]([O-])c1ccc([Se]CCBr)c([N+](=O)[O-])c1
- T/C [6]: 101 % of control
- T/C [7]: 101 % of control

SMILES: CCC(C)(CC(=O)O)c1ccccc1 (centres undefined)
- T/C (dose: 25.0 mg/kg/injection, schedule: Q04DX003 (ip), vehicle: Klucel (hydroxypropylcellulose) (HPC)): 108 % of control
- T/C (dose: 50.0 mg/kg/injection, schedule: Q04DX003 (ip), vehicle: Klucel (hydroxypropylcellulose) (HPC)): 111 % of control
- T/C [6]: 112 % of control
- T/C [7]: 115 % of control

SMILES: O=[N+]([O-])c1ccc(S(=O)(=O)c2ccc(Nc3ccnc4cc(Cl)ccc34)cc2)cc1
- T/C [5]: 98 % of control
- T/C [8]: 91 % of control
- T/C [9]: 90 % of control

SMILES: Cc1c([O-])[n+](Cc2ccccc2)nn1C
- T/C (dose: 25.0 mg/kg/injection, schedule: Q01DX009 (ip), vehicle: water): 89 % of control

SMILES: CCCOCCOCCOC(C)Oc1ccc(OC)cc1 (centres undefined)
- T/C (dose: 60.0 mg/kg/injection, schedule: Q01DX005 (ip), vehicle: saline with Tween-80): 105 % of control
- T/C (dose: 120.0 mg/kg/injection, schedule: Q01DX005 (ip), vehicle: saline with Tween-80): 104 % of control
- T/C (dose: 240.0 mg/kg/injection, schedule: Q01DX005 (ip), vehicle: saline with Tween-80): 104 % of control

SMILES: S=C(NCc1ccccc1)N1CCC(CCCC2CCN(C(=S)NCc3ccccc3)CC2)CC1
- T/C [10]: 92 % of control
- T/C [11]: 91 % of control
- T/C [12]: 88 % of control

SMILES: CC(=O)[C-](I)C(C)=O.CC(=O)[C-](I)C(C)=O.CC(=O)[C-](I)C(C)=O.[Ru+3]
- T/C [10]: 106 % of control
- T/C [11]: 106 % of control
- T/C [12]: 115 % of control

SMILES: CC(=O)/C=C(\C)Nc1noc(-c2ccccc2)n1
- T/C (dose: 4.38 mg/kg/injection, schedule: Q01DX005 (ip), vehicle: Klucel (hydroxypropylcellulose) (HPC)): 102 % of control
- T/C (dose: 8.75 mg/kg/injection, schedule: Q01DX005 (ip), vehicle: Klucel (hydroxypropylcellulose) (HPC)): 96 % of control
- T/C (dose: 17.5 mg/kg/injection, schedule: Q01DX005 (ip), vehicle: Klucel (hydroxypropylcellulose) (HPC)): 101 % of control

SMILES: COC(=O)CCCCCCCCCCN(CCCl)CCCl
- T/C (dose: 6.25 mg/kg/injection, schedule: Q01DX009 (ip), vehicle: saline): 160 % of control and 169 % of control
- T/C (dose: 12.5 mg/kg/injection, schedule: Q01DX009 (ip), vehicle: saline): 89 % of control

SMILES: CC(C)(S)[C@H]1NC(=O)NC1=O
- T/C [5]: 99 % of control
- T/C [8]: 99 % of control
- T/C [9]: 103 % of control

SMILES: O=C(Nc1n[nH]c(NC(=O)c2ccccc2)n1)c1ccccc1
- T/C [5]: 92 % of control
- T/C [8]: 88 % of control

SMILES: O=C1c2ccccc2C(=O)N1CN(CS(=O)(=O)c1ccccc1)c1ccccc1
- T/C [10]: 98 % of control
- T/C [11]: 88 % of control
- T/C [12]: 86 % of control

SMILES: N=C(N)n1c(N)nc2ccccc2c1=O
- T/C (dose: 12.0 mg/kg/injection, schedule: Q01DX005 (ip), vehicle: Klucel (hydroxypropylcellulose) (HPC)): 108 % of control
- T/C (dose: 12.5 mg/kg/injection, schedule: Q01DX005 (ip), vehicle: saline with Tween-80): 100 % of control
- T/C [4]: 101 % of control
- T/C (dose: 25.0 mg/kg/injection, schedule: Q01DX005 (ip), vehicle: saline with Tween-80): 104 % of control
- T/C [5]: 121 % of control
- T/C [13]: 97 % of control

SMILES: CSCC[C@H](NC(C)=O)B1OCCO1
- T/C [14]: 100 % of control
- T/C [15]: 104 % of control
- T/C [16]: 109 % of control

SMILES: CC(C)COC(=O)NCCCl
- T/C [3]: 100 % of control
- T/C [1]: 97 % of control
- T/C [2]: 97 % of control

SMILES: O=C(N/N=C\c1c(O)ccc2ccccc12)c1ccncc1
- T/C [13]: 104 % of control
- T/C [17]: 105 % of control

SMILES: O=C(CCCSCCCl)Nc1c([N+](=O)[O-])cc([N+](=O)[O-])cc1S(=O)(=O)O
- T/C (dose: 3.13 mg/kg/injection, schedule: Q04DX003 (ip), vehicle: DMSO): 110 % of control
- T/C (dose: 6.25 mg/kg/injection, schedule: Q04DX003 (ip), vehicle: DMSO): 111 % of control
- T/C (dose: 50.0 mg/kg/injection, schedule: Q04DX003 (ip), vehicle: DMSO): 118 % of control
- T/C (dose: 100.0 mg/kg/injection, schedule: Q04DX003 (ip), vehicle: olive oil, sesame oil, peanut oil): 120 % of control
- T/C (dose: 150.0 mg/kg/injection, schedule: Q04DX003 (ip), vehicle: DMSO): 114 % of control

SMILES: Cc1c(C)c2ccc3occc(=O)c3c2oc1=O
- T/C [13]: 102 % of control
- T/C [17]: 101 % of control
- T/C (dose: 200.0 mg/kg/injection, schedule: Q01DX005 (ip), vehicle: saline with Tween-80): 100 % of control

SMILES: CC1(C)OC2CC(=O)OCC23C1CC(=O)C1(C)C3CCC2(C)C(c3ccoc3)OC(=O)C3OC321 (centres undefined)
- T/C (dose: 50.0 mg/kg/injection, schedule: Q01DX010 (ip), vehicle: saline): 100 % of control
- T/C (dose: 100.0 mg/kg/injection, schedule: Q01DX010 (ip), vehicle: saline): 95 % of control
- T/C (dose: 200.0 mg/kg/injection, schedule: Q01DX010 (ip), vehicle: saline): 95 % of control

SMILES: Ic1sc(I)c(I)c1I
- T/C (dose: 6.25 mg/kg/injection, schedule: Q01DX001 (ip), vehicle: saline with Tween-80): 100 % of control
- T/C (dose: 12.5 mg/kg/injection, schedule: Q01DX001 (ip), vehicle: saline with Tween-80): 100 % of control
- T/C (dose: 25.0 mg/kg/injection, schedule: Q01DX001 (ip), vehicle: saline with Tween-80): 105 % of control

SMILES: Cc1ccc(/C=C/C(=O)C(C)CN(C)C)cc1 (centres undefined)
- T/C (dose: 15.0 mg/kg/injection, schedule: Q01DX005 (ip), vehicle: saline): 100 % of control
- T/C (dose: 30.0 mg/kg/injection, schedule: Q01DX005 (ip), vehicle: saline): 99 % of control
- T/C [14]: 98 % of control and 100 % of control
- T/C [15]: 100 % of control and 106 % of control and 107 % of control
- T/C [16]: 119 % of control

SMILES: CN(C(=O)c1cc2c(cc1Br)OCO2)c1ccccc1
- T/C (dose: 25.0 mg/kg/injection, schedule: Q01DX009 (ip), vehicle: other): 100 % of control
- T/C (dose: 50.0 mg/kg/injection, schedule: Q01DX009 (ip), vehicle: other): 98 % of control
- T/C (dose: 100.0 mg/kg/injection, schedule: Q01DX009 (ip), vehicle: other): 111 % of control

SMILES: COc1ccc2c3c([nH]c2c1[N+](=O)[O-])C(C)N(S(=O)(=O)c1ccccc1)CC3 (centres undefined)
- T/C (dose: 8.5 mg/kg/injection, schedule: Q01DX005 (ip), vehicle: Klucel (hydroxypropylcellulose) (HPC)): 95 % of control
- T/C (dose: 17.0 mg/kg/injection, schedule: Q01DX005 (ip), vehicle: Klucel (hydroxypropylcellulose) (HPC)): 97 % of control
- T/C (dose: 34.0 mg/kg/injection, schedule: Q01DX005 (ip), vehicle: Klucel (hydroxypropylcellulose) (HPC)): 104 % of control
- T/C (dose: 68.0 mg/kg/injection, schedule: Q01DX005 (ip), vehicle: Klucel (hydroxypropylcellulose) (HPC)): 95 % of control
- T/C (dose: 136.0 mg/kg/injection, schedule: Q01DX005 (ip), vehicle: Klucel (hydroxypropylcellulose) (HPC)): 89 % of control
